In US11389415B2, “Methods of regulating cannabinoid receptor activity-related disorders and diseases” (The United States of America as represented by the …, priority 2012, dated 2022):
Like-named read-outs stand apart in the source and are kept apart here.

How the values were obtained:
PC3 [1] = test: tumor cell growth (CTG), PC3
LN-229 = test: tumor cell growth (CTG), LN-229 / LN229
GL261 = test: tumor cell growth, GL261; conditions: read-out: IC50 (uM), GL261 (CNS); Table 6
HEPG2 = test: tumor cell growth, HEPG2; conditions: read-out: IC50 (uM), HEPG2 (Liver C); Table 6
H460 = test: tumor cell growth (CTG), H460 / NCIH460
HCT116 [2] = test: tumor cell growth (CTG), HCT116
HEP3B [3] = test: tumor cell growth (CTG), HEP3B
A172 = test: tumor cell growth, A172; conditions: read-out: IC50 (uM), A172 (CNS); Table 6
A549 = test: tumor cell growth, A549; conditions: read-out: IC50 (uM), A549 (NSCLC); Table 6
MCF7 = test: tumor cell growth, MCF7; conditions: read-out: IC50 (uM), MCF7 (Breast C); Table 6
PC3 [4] = test: [3H]-Thymidine incorporation in 96-well plates (Thy), PC3; conditions: read-out: IC50 (uM), PC3 (Prostrate Cancer)
LN-18 = test: tumor cell growth, LN-18; conditions: read-out: IC50 (uM), LN-18 (CNS); Table 6
PANC-1 = test: tumor cell growth, PANC-1; conditions: read-out: IC50 (uM), PANC-1 (Pancreatic C); Table 6
NCIH460 = test: Thymidine (Thy) 96 well, NCIH460; conditions: read-out: IC50 (uM), NCIH460 (NSCLC)
U87 = test: tumor cell growth, U87; conditions: read-out: IC50 (uM), U87 (CNS); Table 6
HT29 [5] = test: Thymidine (Thy) 96 well, HT29; conditions: read-out: IC50 (uM), HT29 (Colon Cancer)
HT29 [6] = test: tumor cell growth (CTG), HT29
LN229 = test: [3H]-Thymidine incorporation in 96-well plates (Thy), LN229; conditions: read-out: IC50 (uM), LN229 (CNS Cancer)
U118 = test: tumor cell growth, U118; conditions: read-out: IC50 (uM), U118 (CNS); Table 6
HEP3B [7] = test: [3H]-Thymidine incorporation in 96-well plates (Thy), HEP3B; conditions: read-out: IC50 (uM), HEP3B (Liver Cancer)
HCT116 [8] = test: Thymidine (Thy) 96 well, HCT116; conditions: read-out: IC50 (uM), HCT116 (Colon Cancer)
U251 = test: tumor cell growth, U251; conditions: read-out: IC50 (uM), U251 (CNS); Table 6
MDAMB231 = test: tumor cell growth, MDAMB231; conditions: read-out: IC50 (uM), MDAMB231 (Breast C); Table 6
Du-145 = test: tumor cell growth, Du-145; conditions: read-out: IC50 (uM), Du-145 (Prostate C); Table 6

COc1ccc(C[C@@H](C)NC[C@H](O)c2cc(O)cc(O)c2)c2ccccc12 [(R,R′)-MNF, (R,R′)-4′-methoxy-1-naphthylfenoterol]
IC50 (PC3 [1]; read-out: IC50 (uM), PC3 (Prostate C), Table 6): 28.1 µM
IC50 (PC3 [1]; read-out: IC50 (uM), PC3 (Prostrate Cancer), 96 well CTG 1 day treatment): 34.5 µM
IC50 (PC3 [1]; read-out: IC50 (uM), PC3 (Prostrate Cancer), 96 well CTG 2 days treatment): 20.4 µM
IC50 (PC3 [1]; read-out: IC50 (uM), PC3 (Prostrate Cancer), 384well CTG 3 days treatment −1): 28.1 µM
IC50 (LN-229; read-out: IC50 (uM), LN229 (CNS Cancer), 96 well CTG 1 day treatment): 29.3 µM
IC50 (LN-229; read-out: IC50 (uM), LN229 (CNS Cancer), 96 well CTG 2 days treatment): 15.7 µM
IC50 (LN-229; read-out: IC50 (uM), LN229 (CNS Cancer), 384well CTG 3 days treatment −1): 26.8 µM
IC50 (LN-229; read-out: IC50 (uM), LN-229 (CNS), Table 6): 26.8 µM
IC50 (GL261): 21.3 µM
IC50 (HEPG2): 28.8 µM
IC50 (H460; read-out: IC50 (uM), H460 (NSCLC), Table 6): 11.6 µM
IC50 (H460; read-out: IC50 (uM), NCIH460 (NSCLC), 96 well CTG 1 day treatment): 38.9 µM
IC50 (H460; read-out: IC50 (uM), NCIH460 (NSCLC), 96 well CTG 2 days treatment): 15.4 µM
IC50 (H460; read-out: IC50 (uM), NCIH460 (NSCLC), 384well CTG 3 days treatment −1): 11.6 µM
IC50 (H460; read-out: IC50 (uM), NCIH460 (NSCLC), 384well CTG 3 days treatment −2): 17.7 µM
IC50 (HCT116 [2]; read-out: IC50 (uM), HCT116 (Colon C), Table 6): 12.9 µM
IC50 (HCT116 [2]; read-out: IC50 (uM), HCT116 (Colon Cancer), 96 well CTG 1 day treatment): 19 µM
IC50 (HCT116 [2]; read-out: IC50 (uM), HCT116 (Colon Cancer), 96 well CTG 2 days treatment): 10.5 µM
IC50 (HCT116 [2]; read-out: IC50 (uM), HCT116 (Colon Cancer), 384well CTG 3 days treatment −1): 12.9 µM
IC50 (HCT116 [2]; read-out: IC50 (uM), HCT116 (Colon Cancer), 384well CTG 3 days treatment −2): 12.2 µM
IC50 (HEP3B [3]; read-out: IC50 (uM), HEP3B (Liver C), Table 6): 14.7 µM
IC50 (HEP3B [3]; read-out: IC50 (uM), HEP3B (Liver Cancer), 96 well CTG 1 day treatment): 28.3 µM
IC50 (HEP3B [3]; read-out: IC50 (uM), HEP3B (Liver Cancer), 96 well CTG 2 days treatment): 13.5 µM
IC50 (HEP3B [3]; read-out: IC50 (uM), HEP3B (Liver Cancer), 384well CTG 3 days treatment −1): 14.7 µM
IC50 (HEP3B [3]; read-out: IC50 (uM), HEP3B (Liver Cancer), 384well CTG 3 days treatment −2): 12.1 µM
IC50 (A172): 30.5 µM
IC50 (A549): 23.1 µM
IC50 (MCF7): 37.2 µM
IC50 (PC3 [4]; 96 well Thy 2 days treatment): 10.8 µM
IC50 (PC3 [4]; 96 well Tye 1 day treatment): 11 µM
IC50 (LN-18): 29.7 µM
IC50 (PANC-1): 33.4 µM
IC50 (NCIH460; 96 well Thy 2 days treatment): 21 µM
IC50 (NCIH460; 96 well Tye 1 day treatment): 25.1 µM
IC50 (U87): 25.7 µM
IC50 (HT29 [5]; 96 well Thy 2 days treatment): 19.6 µM
IC50 (HT29 [5]; 96 well Tye 1 day treatment): 13 µM
IC50 (HT29 [6]; read-out: IC50 (uM), HT29 (Colon C), Table 6): 10.7 µM
IC50 (HT29 [6]; read-out: IC50 (uM), HT29 (Colon Cancer), 96 well CTG 1 day treatment): 30.4 µM
IC50 (HT29 [6]; read-out: IC50 (uM), HT29 (Colon Cancer), 96 well CTG 2 days treatment): 11.7 µM
IC50 (HT29 [6]; read-out: IC50 (uM), HT29 (Colon Cancer), 384well CTG 3 days treatment −1): 10.7 µM
IC50 (LN229; 96 well Thy 2 days treatment): 10.4 µM
IC50 (LN229; 96 well Tye 1 day treatment): 9.64 µM
IC50 (U118): 37 µM
IC50 (HEP3B [7]; 96 well Thy 2 days treatment): 10 µM
IC50 (HEP3B [7]; 96 well Tye 1 day treatment): 10.7 µM
IC50 (HCT116 [8]; 96 well Thy 2 days treatment): 11 µM
IC50 (HCT116 [8]; 96 well Tye 1 day treatment): 23.8 µM
IC50 (U251): 26.7 µM
IC50 (MDAMB231): 33.2 µM
IC50 (Du-145): 34.8 µM
